# From ChEMBL document CHEMBL1201862, “PubChem BioAssay data set” (2004)
#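 Growth conditions: 96-well plates. Treatment: test compound, 48 hours, 5 concentrations. Analysis: linear interpolation between bracketing concentrations; unreached endpoints set to highest concentration. GI50 = concentration required for 50% inhibition of growth.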 The source made the active and inactive calls. Cut-off read from the data, not from the text of the source: active = GI50 up to about 1.1 µM and inactive = higher.
# Key:
# Assay in all cases: DTP human tumour cell line panel, 48 h
# MOLT-4 = tested on: MOLT-4
# CCRF-CEM = tested on: CCRF-CEM
# UACC-62 = tested on: UACC-62
# U-251 = tested on: U-251
# Malme-3M = tested on: Malme-3M
# SF-295 = tested on: SF-295
# UACC-257 = tested on: UACC-257
# SN12C = tested on: SN12C
# SW-620 = tested on: SW-620
# NCI-H226 = tested on: NCI-H226
# SK-MEL-28 = tested on: SK-MEL-28
# OVCAR-4 = tested on: OVCAR-4
# SNB-19 = tested on: SNB-19
# OVCAR-5 = tested on: OVCAR-5
# COLO 205 = tested on: COLO 205
# SK-MEL-5 = tested on: SK-MEL-5
SMILES,GI50 (MOLT-4),GI50 (CCRF-CEM),GI50 (UACC-62),GI50 (U-251),GI50 (Malme-3M),GI50 (SF-295),GI50 (UACC-257),GI50 (SN12C),GI50 (SW-620),GI50 (NCI-H226),GI50 (SK-MEL-28),GI50 (OVCAR-4),GI50 (SNB-19),GI50 (OVCAR-5),GI50 (COLO 205),GI50 (SK-MEL-5)
COc1cc(/C=C2\Cc3ccccc3C2=O)cc(OC)c1OC,> 100 µM (inactive),> 100 µM (inactive),> 100 µM (inactive),> 100 µM (inactive),> 100 µM (inactive),> 100 µM (inactive),> 100 µM (inactive),> 100 µM (inactive),> 100 µM (inactive),> 100 µM (inactive),> 100 µM (inactive),> 100 µM (inactive),> 100 µM (inactive),> 100 µM (inactive),> 100 µM (inactive),> 100 µM (inactive)
Cc1ccc2oc(=O)cc(CC(=O)O)c2c1,> 100 µM (inactive),> 100 µM (inactive),> 100 µM (inactive),> 100 µM (inactive),> 100 µM (inactive),> 100 µM (inactive),,> 100 µM (inactive),> 100 µM (inactive),> 100 µM (inactive),> 100 µM (inactive),> 100 µM (inactive),> 100 µM (inactive),> 100 µM (inactive),> 100 µM (inactive),> 100 µM (inactive)
CC(C)(C)C1CCN(C(=O)c2ccccc2)CC1,47.3 µM (inactive),> 100 µM (inactive),> 100 µM (inactive),> 100 µM (inactive),43.6 µM (inactive),> 100 µM (inactive),41.1 µM (inactive),> 100 µM (inactive),> 100 µM (inactive),> 100 µM (inactive),,,> 100 µM (inactive),> 100 µM (inactive),> 100 µM (inactive),28.8 µM (inactive)
[O-][S+]1Nc2c(Cl)cc(Cl)c(Cl)c2S1 (stereo not drawn),34.7 µM (inactive),39.3 µM (inactive),> 100 µM (inactive),38.6 µM (inactive),> 100 µM (inactive),> 100 µM (inactive),> 100 µM (inactive),> 100 µM (inactive),5.62 µM (inactive),> 100 µM (inactive),> 100 µM (inactive),> 100 µM (inactive),> 100 µM (inactive),> 100 µM (inactive),> 100 µM (inactive),70.6 µM (inactive)
CC(Nc1ccc(S(=O)(=O)NC(=N)N)cc1)c1c2ccccc2nc2ccccc12 (stereo not drawn),14.6 µM (inactive),19.3 µM (inactive),> 10 µM (inactive),31.6 µM (inactive),22.4 µM (inactive),35.2 µM (inactive),35.3 µM (inactive),30 µM (inactive),41.3 µM (inactive),19.6 µM (inactive),44.9 µM (inactive),10.1 µM (inactive),40 µM (inactive),20.2 µM (inactive),57.7 µM (inactive),
O=C(O)CCC1c2[nH]c3ccccc3c2CCN1Cc1ccccc1 (stereo not drawn),> 100 µM (inactive),> 100 µM (inactive),> 100 µM (inactive),> 100 µM (inactive),> 100 µM (inactive),> 100 µM (inactive),> 100 µM (inactive),> 100 µM (inactive),> 100 µM (inactive),> 100 µM (inactive),> 100 µM (inactive),> 100 µM (inactive),> 100 µM (inactive),> 100 µM (inactive),> 100 µM (inactive),> 100 µM (inactive)
O=C(O)CCSC(=O)Nc1ccccc1F,> 100 µM (inactive),> 100 µM (inactive),,> 100 µM (inactive),,,,> 100 µM (inactive),> 100 µM (inactive),> 100 µM (inactive),> 100 µM (inactive),> 100 µM (inactive),> 100 µM (inactive),> 100 µM (inactive),> 100 µM (inactive),
O=C1NC(=O)C(=O)C(c2nc3ccccc3s2)C1=O,> 100 µM (inactive),> 100 µM (inactive),> 100 µM (inactive),> 100 µM (inactive),> 100 µM (inactive),> 100 µM (inactive),> 100 µM (inactive),> 100 µM (inactive),> 100 µM (inactive),> 100 µM (inactive),> 100 µM (inactive),> 100 µM (inactive),> 100 µM (inactive),,> 100 µM (inactive),> 100 µM (inactive)
O=C(CC(=O)c1cccc([N+](=O)[O-])c1)C(=O)Nc1nc([N+](=O)[O-])cs1,> 100 µM (inactive),47.8 µM (inactive),> 100 µM (inactive),> 100 µM (inactive),> 100 µM (inactive),> 100 µM (inactive),> 100 µM (inactive),> 100 µM (inactive),> 100 µM (inactive),> 100 µM (inactive),> 100 µM (inactive),0.0307 µM (active),> 100 µM (inactive),> 100 µM (inactive),> 100 µM (inactive),> 100 µM (inactive)
NC(=O)OCC(COc1ccc(Cl)cc1)OC(=O)c1ccccc1Cl (stereo not drawn),21 µM (inactive),22.3 µM (inactive),17.2 µM (inactive),14.1 µM (inactive),20.3 µM (inactive),25.4 µM (inactive),19 µM (inactive),16.6 µM (inactive),19 µM (inactive),25.1 µM (inactive),18.6 µM (inactive),,28.1 µM (inactive),20.6 µM (inactive),17.5 µM (inactive),19.1 µM (inactive)
COC(=O)CCC(NC(=S)N/N=C/c1cccs1)C(=O)OC (stereo not drawn),,,> 100 µM (inactive),> 100 µM (inactive),> 100 µM (inactive),> 100 µM (inactive),> 100 µM (inactive),> 100 µM (inactive),> 100 µM (inactive),> 100 µM (inactive),> 100 µM (inactive),> 100 µM (inactive),> 100 µM (inactive),> 100 µM (inactive),> 100 µM (inactive),> 100 µM (inactive)
NC(=O)CCC(Nc1c2ccccc2[n+]([O-])c2ccccc12)C(=O)O (stereo not drawn),55.1 µM (inactive),42.5 µM (inactive),51.3 µM (inactive),> 100 µM (inactive),32.7 µM (inactive),> 100 µM (inactive),,71.8 µM (inactive),> 100 µM (inactive),64.6 µM (inactive),26.4 µM (inactive),84.1 µM (inactive),77.1 µM (inactive),> 100 µM (inactive),49.1 µM (inactive),32 µM (inactive)
CC(C)(C)[C@H]1CC[C@@](O)(c2ccccc2)CC1.CC(C)(C)[C@H]1CC[C@](O)(c2ccccc2)CC1,15.6 µM (inactive),26.5 µM (inactive),19.1 µM (inactive),16.3 µM (inactive),29.9 µM (inactive),36.4 µM (inactive),22.2 µM (inactive),18.8 µM (inactive),3.74 µM (inactive),11.6 µM (inactive),22.5 µM (inactive),,25.2 µM (inactive),44.7 µM (inactive),17.7 µM (inactive),14.8 µM (inactive)
